# Results from patent US20190031618A1, “BENZIMIDAZOLE DERIVATIVES USEFUL AS CB-1 INVERSE AGONISTS” (Janssen Pharmaceutica NV, priority 2015, published 2019).
# Test system: DIO mice
# Assay: Chronic DIO Mouse: food intake, body weight, plasma insulin
# Assay type: in vivo
# Details: for Mean Body Weight (Std Err) / Plasma Insulin (Std Err): DIO mice; for Plasma Insulin (Std Err): chronic study; for Mean Daily Food Intake: chronic DIO mouse, (Std Err)
# Method: Male 14-20-week old diet-induced obese mice are ordered from Taconic. Mice were started on a 60% fat diet (D12492, Research Diets, New Brunswick, N.J.) at 6 weeks of age. Mice are single-housed.
# DIO mice received vehicle, test compound (@ 1, 3, 10, and 30 mg/kg) daily for 26 days. At the end of the experiment, the mice were euthanized and blood and tissues were collected.
# Body weight and food weight (food intake) were monitored daily for days 1-5 and twice weekly thereafter.
# Blood glucose was measured from the tail vein with a Lifescan glucometer. Plasma insulin was measured with an ELISA or HTRF kit (Cisbio). Plasma parameters were measured with an Olympus clinical chemistry analyzer.
structure (smiles),measurement,setting,value
O=C(O)c1cccc(CN2CCC(n3c(C4CC4)nc4ccc(C(c5ccc(Cl)cc5)c5ccc(Cl)cc5)cc43)CC2)c1 [Example 148],Mean Body Weight (Std Err),"1 mg/kg daily, Day 0",42.03 (0.80) Grams
same,Mean Body Weight (Std Err),"1 mg/kg daily, Day 1",42.63 (0.79) Grams
same,Mean Body Weight (Std Err),"1 mg/kg daily, Day 2",42.56 (0.86) Grams
same,Mean Body Weight (Std Err),"1 mg/kg daily, Day 3",42.46 (0.91) Grams
same,Mean Body Weight (Std Err),"1 mg/kg daily, Day 4",42.26 (0.87) Grams
same,Mean Body Weight (Std Err),"1 mg/kg daily, Day 5",42.31 (0.81) Grams
same,Mean Body Weight (Std Err),"1 mg/kg daily, Day 8",41.62 (0.79) Grams
same,Mean Body Weight (Std Err),"1 mg/kg daily, Day 11",41.91 (0.77) Grams
same,Mean Body Weight (Std Err),"1 mg/kg daily, Day 15",42.67 (1.02) Grams
same,Mean Body Weight (Std Err),"1 mg/kg daily, Day 18",40.54 (1.23) Grams
same,Mean Body Weight (Std Err),"1 mg/kg daily, Day 24",41.11 (1.30) Grams
same,Plasma Insulin (Std Err),1 mg/kg daily,5.92 (0.92) ng/mL
same,Mean Body Weight (Std Err),"3 mg/kg daily, Day 0",42.28 (0.49) Grams
same,Mean Body Weight (Std Err),"3 mg/kg daily, Day 1",42.94 (0.45) Grams
same,Mean Body Weight (Std Err),"3 mg/kg daily, Day 2",42.12 (0.43) Grams
same,Mean Body Weight (Std Err),"3 mg/kg daily, Day 3",41.85 (0.47) Grams
same,Mean Body Weight (Std Err),"3 mg/kg daily, Day 4",41.42 (0.44) Grams
same,Mean Body Weight (Std Err),"3 mg/kg daily, Day 5",41.3 (0.36) Grams
same,Mean Body Weight (Std Err),"3 mg/kg daily, Day 8",39.78 (0.29) Grams
same,Mean Body Weight (Std Err),"3 mg/kg daily, Day 11",39.1 (0.41) Grams
same,Mean Body Weight (Std Err),"3 mg/kg daily, Day 15",40.43 (0.40) Grams
same,Mean Body Weight (Std Err),"3 mg/kg daily, Day 18",39.84 (0.53) Grams
same,Mean Body Weight (Std Err),"3 mg/kg daily, Day 24",40.48 (0.48) Grams
same,Plasma Insulin (Std Err),3 mg/kg daily,4.74 (0.83) ng/mL
same,Mean Body Weight (Std Err),"10 mg/kg daily, Day 0",42.09 (0.85) Grams
same,Mean Body Weight (Std Err),"10 mg/kg daily, Day 1",42.69 (0.74) Grams
same,Mean Body Weight (Std Err),"10 mg/kg daily, Day 2",40.46 (0.66) Grams
same,Mean Body Weight (Std Err),"10 mg/kg daily, Day 3",39.85 (0.68) Grams
same,Mean Body Weight (Std Err),"10 mg/kg daily, Day 4",39.44 (0.70) Grams
same,Mean Body Weight (Std Err),"10 mg/kg daily, Day 5",38.78 (0.70) Grams
same,Mean Body Weight (Std Err),"10 mg/kg daily, Day 8",37.4 (0.67) Grams
same,Mean Body Weight (Std Err),"10 mg/kg daily, Day 11",36.99 (0.78) Grams
same,Mean Body Weight (Std Err),"10 mg/kg daily, Day 15",37.33 (0.84) Grams
same,Mean Body Weight (Std Err),"10 mg/kg daily, Day 18",37.02 (0.88) Grams
same,Mean Body Weight (Std Err),"10 mg/kg daily, Day 24",36.42 (1.25) Grams
same,Plasma Insulin (Std Err),10 mg/kg daily,2.20 (0.13) ng/mL
same,Mean Body Weight (Std Err),"30 mg/kg daily, Day 0",42.46 (0.58) Grams
same,Mean Body Weight (Std Err),"30 mg/kg daily, Day 1",43.13 (0.69) Grams
same,Mean Body Weight (Std Err),"30 mg/kg daily, Day 2",39.64 (0.68) Grams
same,Mean Body Weight (Std Err),"30 mg/kg daily, Day 3",38.53 (0.66) Grams
same,Mean Body Weight (Std Err),"30 mg/kg daily, Day 4",37.46 (0.75) Grams
same,Mean Body Weight (Std Err),"30 mg/kg daily, Day 5",36.67 (0.75) Grams
same,Mean Body Weight (Std Err),"30 mg/kg daily, Day 8",34.95 (0.78) Grams
same,Mean Body Weight (Std Err),"30 mg/kg daily, Day 11",33.79 (0.87) Grams
same,Mean Body Weight (Std Err),"30 mg/kg daily, Day 15",34.19 (0.64) Grams
same,Mean Body Weight (Std Err),"30 mg/kg daily, Day 18",32.47 (0.92) Grams
same,Mean Body Weight (Std Err),"30 mg/kg daily, Day 24",32.86 (0.91) Grams
same,Plasma Insulin (Std Err),30 mg/kg daily,2.85 (0.27) ng/mL
same,Mean Daily Food Intake,"1 mg/kg daily, Day 2",2.3 (0.1) Grams
same,Mean Daily Food Intake,"1 mg/kg daily, Day 3",2.3 (0.1) Grams
same,Mean Daily Food Intake,"1 mg/kg daily, Day 4",2.2 (0.1) Grams
same,Mean Daily Food Intake,"1 mg/kg daily, Day 5",2.4 (0.1) Grams
same,Mean Daily Food Intake,"1 mg/kg daily, Day 8",2.1 (0.1) Grams
same,Mean Daily Food Intake,"1 mg/kg daily, Day 11",2.3 (0.1) Grams
same,Mean Daily Food Intake,"1 mg/kg daily, Day 15",2.4 (0.1) Grams
same,Mean Daily Food Intake,"1 mg/kg daily, Day 18",1.6 (0.3) Grams
same,Mean Daily Food Intake,"1 mg/kg daily, Day 24",2.1 (0.2) Grams
same,Mean Daily Food Intake,"3 mg/kg daily, Day 2",2.0 (0.2) Grams
same,Mean Daily Food Intake,"3 mg/kg daily, Day 3",2.0 (0.1) Grams
same,Mean Daily Food Intake,"3 mg/kg daily, Day 4",1.9 (0.2) Grams
same,Mean Daily Food Intake,"3 mg/kg daily, Day 5",1.8 (0.2) Grams
same,Mean Daily Food Intake,"3 mg/kg daily, Day 8",1.7 (0.1) Grams
same,Mean Daily Food Intake,"3 mg/kg daily, Day 11",1.8 (0.1) Grams
same,Mean Daily Food Intake,"3 mg/kg daily, Day 15",2.5 (0.1) Grams
same,Mean Daily Food Intake,"3 mg/kg daily, Day 18",2.2 (0.1) Grams
same,Mean Daily Food Intake,"3 mg/kg daily, Day 24",2.2 (0.1) Grams
same,Mean Daily Food Intake,"10 mg/kg daily, Day 2",0.5 (0.1) Grams
same,Mean Daily Food Intake,"10 mg/kg daily, Day 3",0.9 (0.1) Grams
